Read-outs that look alike come from different tables or passages of the source. Some results are limits rather than exact numbers.

One experiment concerns the target T1, Carboxypeptidase A (Bos taurus, UniProt P00730).
T1 sequence (P00730 111-419): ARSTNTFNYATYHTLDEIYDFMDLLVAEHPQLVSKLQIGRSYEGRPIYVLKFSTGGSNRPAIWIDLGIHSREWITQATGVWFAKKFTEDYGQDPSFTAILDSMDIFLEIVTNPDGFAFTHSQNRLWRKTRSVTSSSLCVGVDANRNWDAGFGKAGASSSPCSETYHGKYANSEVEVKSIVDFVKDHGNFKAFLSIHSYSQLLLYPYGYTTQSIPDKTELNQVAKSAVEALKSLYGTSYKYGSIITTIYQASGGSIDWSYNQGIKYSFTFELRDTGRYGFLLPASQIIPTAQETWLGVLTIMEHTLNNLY
Nature of the experiment: Carboxypeptidase A activity assay. The note with it: Ki class, compounds tested in 5% DMSO. The class given is biochemical. The gist of the method:
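Ki obtained by correcting apparent Ki for substrate, Ki=Kiapp/(1+[S]/Km), from 12-concentration series. Enzyme activity read by absorbance at 328 nm with 5% DMSO present, EDTA stop.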

For a further experiment, the target named is T2, ACE (Sigma, A2580) (Sus scrofa, UniProt F1RRW5).
T2 construct: ACE from porcine kidney; purchased Sigma A2580; host or cells: porcine kidney
T2 sequence (F1RRW5 34-1309): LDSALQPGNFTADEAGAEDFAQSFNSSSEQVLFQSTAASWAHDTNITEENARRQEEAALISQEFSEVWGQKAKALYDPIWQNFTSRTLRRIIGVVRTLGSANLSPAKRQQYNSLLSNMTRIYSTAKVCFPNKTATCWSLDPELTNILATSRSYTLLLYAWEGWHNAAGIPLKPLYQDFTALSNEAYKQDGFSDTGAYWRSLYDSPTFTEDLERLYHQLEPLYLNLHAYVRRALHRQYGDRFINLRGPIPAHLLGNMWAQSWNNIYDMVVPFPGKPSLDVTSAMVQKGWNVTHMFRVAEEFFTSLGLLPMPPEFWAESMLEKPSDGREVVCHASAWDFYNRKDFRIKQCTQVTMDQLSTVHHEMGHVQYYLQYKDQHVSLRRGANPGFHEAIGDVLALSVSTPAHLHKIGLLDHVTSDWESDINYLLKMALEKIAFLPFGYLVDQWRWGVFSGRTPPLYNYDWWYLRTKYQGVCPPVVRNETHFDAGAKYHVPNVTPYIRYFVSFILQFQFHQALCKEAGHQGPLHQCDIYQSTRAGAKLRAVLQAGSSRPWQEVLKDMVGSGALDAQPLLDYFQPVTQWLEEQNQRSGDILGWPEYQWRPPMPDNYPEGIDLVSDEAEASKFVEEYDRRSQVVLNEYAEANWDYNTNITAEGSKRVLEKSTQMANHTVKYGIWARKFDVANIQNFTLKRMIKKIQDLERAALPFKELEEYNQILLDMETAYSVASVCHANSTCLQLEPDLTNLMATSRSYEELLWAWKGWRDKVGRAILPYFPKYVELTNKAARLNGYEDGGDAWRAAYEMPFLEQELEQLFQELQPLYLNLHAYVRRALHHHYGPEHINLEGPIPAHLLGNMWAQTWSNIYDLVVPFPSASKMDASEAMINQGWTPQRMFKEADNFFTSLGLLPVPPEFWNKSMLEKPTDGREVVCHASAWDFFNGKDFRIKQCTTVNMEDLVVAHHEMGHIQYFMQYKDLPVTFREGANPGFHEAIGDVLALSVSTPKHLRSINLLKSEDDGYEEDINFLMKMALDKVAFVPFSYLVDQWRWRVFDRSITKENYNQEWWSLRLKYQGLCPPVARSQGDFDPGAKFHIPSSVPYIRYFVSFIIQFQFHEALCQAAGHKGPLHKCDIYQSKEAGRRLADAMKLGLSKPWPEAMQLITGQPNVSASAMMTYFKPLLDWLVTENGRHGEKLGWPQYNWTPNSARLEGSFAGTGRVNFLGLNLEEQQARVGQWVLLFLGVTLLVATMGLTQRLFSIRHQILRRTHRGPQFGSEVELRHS
In words: ACE enzymatic activity assay. The note with it: Ki class, compounds tested in 5% DMSO. The class given is biochemical, porcine. The gist of the method:
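Fluorogenic substrate cleavage by 1 nM ACE, read at 320/405 nm after EDTA stop at ~30 min. Reactions at 25 °C, pH 7.5, in HEPES/NaCl/Brij-35 buffer; compounds tested at 12 concentrations in 5% DMSO.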

Experiment [1] addresses ACE-2 (Rattus norvegicus, UniProt Q5EGZ1). Nature of the experiment: ACE-2 Competitive Substrate Assay, rat ACE-2. The class given is biochemical. As to conditions: Ki class, compounds tested in 5% DMSO.
Experiment [2] concerns the target T3, ACE-2 (Homo sapiens, UniProt Q9BYF1).
T3 construct: a stop codon inserted after the serine immediately preceding the transmembrane domain; made in house; host or cells: CHO K1 cells (transient transfection, purified from conditioned medium)
Nature of the experiment: ACE-2 Competitive Substrate Assay (ACS Assay). The class given is biochemical.
Protocol: An example of such an assay is the ACE-2 Competitive Substrate Assay (ACS Assay).
ACE-2 enzymatic activity was assayed in microtitre plates by the following procedure. The ACE-2 assay buffer used contained 50 mM MES (Boehringer-Mannheim), 300 mM NaCl (Sigma) and 0.01% Brij-35 (Pierce Chemical Co.) at pH 6.5.
Reactions were mixed and incubated at 25° C.
The activity of the test compounds was investigated using the procedure outlined above. The compounds were tested in 5% DMSO. Enzyme activity was measured at 12 compound concentrations.
The following reagents, equipment, stock solutions, and working solutions are used for the ACE-2 assay.
The assay buffer is prepared using 50 mM Mes, 300 mM NaCl, and 0.01% Brij 35, pH 6.5. These components are measured and made up to approximately 800 ml with nanopure water. Using 1M NaOH the pH is adjusted to 6.5 and the solution is then made up to the final volume of 1 L using nanopure water. The buffer is filtered through a 0.45 um disposable filter unit and stored at +4° C. until needed.
This working solution maintains activity for up to 8 hours at room temperature.
The working ACE-2 solution (for using with Mca-APK(Dnp)) is prepared by thawing ACE-2 and diluting it to a concentration of 1 nM using the assay buffer at room temperature.
These solutions are stable up to 8 hours but can not be frozen-thawed for reuse.
Multiple well plates are used for this experiment.
Approximately 360 compounds are tested per plate. Five μl per of each test compound is added in each well. […] Immediately thereafter, 20 μl of Mca-XXX(Dnp) working solution is added per well and mixed for 30 seconds. The reaction is allowed to progress for approximately 60 minutes.
After approximately 60 minutes, 20 μl of 50 mM EDTA is added per well (reaction is linear up to 90 minutes) and mixed for 30 seconds. At this point the fluorescent signal is stable up to 20 hours at room temperature.

Setting [3] is: Ki class, compounds tested in 5% DMSO, 12 concentrations, read-out: Human ACE-2 Activity.
[4] abbreviates: Ki class, compounds tested in 5% DMSO, 12 compound concentrations, Ki=Kiapp/(1+[S]/Km), read-out: Human ACE-2 Activity.

T3 sequence (Q9BYF1 18-740 limits assumed): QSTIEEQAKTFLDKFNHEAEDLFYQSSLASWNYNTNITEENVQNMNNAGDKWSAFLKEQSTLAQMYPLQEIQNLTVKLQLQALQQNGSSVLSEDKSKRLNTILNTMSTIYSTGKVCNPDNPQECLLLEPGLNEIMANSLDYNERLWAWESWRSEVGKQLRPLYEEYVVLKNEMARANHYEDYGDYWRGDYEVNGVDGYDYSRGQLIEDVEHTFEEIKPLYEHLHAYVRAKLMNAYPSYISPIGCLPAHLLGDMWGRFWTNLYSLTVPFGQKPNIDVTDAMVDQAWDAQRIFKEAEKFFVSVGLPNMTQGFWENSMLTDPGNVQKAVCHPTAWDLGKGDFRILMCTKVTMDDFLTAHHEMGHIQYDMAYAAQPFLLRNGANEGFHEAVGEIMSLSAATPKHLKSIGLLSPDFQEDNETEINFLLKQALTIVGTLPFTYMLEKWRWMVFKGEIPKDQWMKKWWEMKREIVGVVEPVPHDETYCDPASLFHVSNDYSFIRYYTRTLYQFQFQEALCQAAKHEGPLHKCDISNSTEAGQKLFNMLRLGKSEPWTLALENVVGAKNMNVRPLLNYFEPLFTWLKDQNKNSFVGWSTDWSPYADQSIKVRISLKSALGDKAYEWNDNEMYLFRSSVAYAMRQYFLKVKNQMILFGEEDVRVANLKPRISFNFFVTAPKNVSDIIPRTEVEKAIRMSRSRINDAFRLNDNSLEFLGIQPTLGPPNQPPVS
ACE-2 (Rattus norvegicus, UniProt Q5EGZ1), sequence (Q5EGZ1 18-805): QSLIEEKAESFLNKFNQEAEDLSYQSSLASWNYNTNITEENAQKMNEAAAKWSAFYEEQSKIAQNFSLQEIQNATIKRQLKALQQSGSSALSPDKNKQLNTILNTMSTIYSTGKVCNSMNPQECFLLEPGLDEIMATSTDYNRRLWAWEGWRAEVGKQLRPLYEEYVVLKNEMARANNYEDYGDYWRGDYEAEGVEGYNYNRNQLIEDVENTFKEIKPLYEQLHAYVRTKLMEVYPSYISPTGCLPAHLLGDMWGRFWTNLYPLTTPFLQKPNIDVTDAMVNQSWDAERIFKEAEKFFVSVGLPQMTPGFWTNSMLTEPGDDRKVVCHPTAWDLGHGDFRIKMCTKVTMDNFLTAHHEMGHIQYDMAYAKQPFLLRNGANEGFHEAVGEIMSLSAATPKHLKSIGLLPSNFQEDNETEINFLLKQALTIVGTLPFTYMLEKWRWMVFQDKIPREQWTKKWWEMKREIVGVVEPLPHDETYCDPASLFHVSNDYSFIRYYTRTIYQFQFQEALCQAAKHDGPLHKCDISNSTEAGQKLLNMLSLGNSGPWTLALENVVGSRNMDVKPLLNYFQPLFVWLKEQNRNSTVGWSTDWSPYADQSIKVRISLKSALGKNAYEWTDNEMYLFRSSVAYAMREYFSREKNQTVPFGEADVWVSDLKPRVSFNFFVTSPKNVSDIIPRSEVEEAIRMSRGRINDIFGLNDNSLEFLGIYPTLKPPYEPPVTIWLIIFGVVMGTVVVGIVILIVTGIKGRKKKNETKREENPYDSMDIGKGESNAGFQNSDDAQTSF

As to `CC(C)CC(N[C@@H](Cc1c[nH]cn1)C(N)=O)C(=O)O` (single isomer, unassigned) [EV, 2-[1-Carbamoyl-2-(1H-imidazol-4-yl)-ethylamino]4-methyl-pentanoic acid], the Ki at Carboxypeptidase A (12 concentrations) was more than 50 µM; at ACE (Sigma, A2580) (12 concentrations) it was more than 50 µM; at ACE-2 [1] (12 concentrations) it was more than 500 nM; at ACE-2 [2] (setting [3]) it was more than 500 nM.

For `CC(C)CC(N[C@@H](Cc1c[nH]cn1)C(=O)Nc1ccc([N+](=O)[O-])cc1)C(=O)O` (single isomer, unassigned) [EX, 2-[2-(1H-Imidazol-4-yl)-1-(4-nitro-phenylcarbamoyl)ethylamino]-4-methyl-pentanoic acid], the Ki at Carboxypeptidase A (12 concentrations) is more than 50 µM; at ACE (Sigma, A2580) (12 concentrations), more than 50 µM; at ACE-2 [1] (12 concentrations), more than 500 nM; on ACE-2 [2] (setting [3]) it was more than 500 nM.

Regarding `CC(C)CC(N[C@@H](Cc1cncn1Cc1ccccc1)C(=O)O)C(=O)O` (single isomer, unassigned) [EZ, 2-[2-(3-Benzyl-3H-imidazol-4-yl)-1-carboxy-ethylamino]-4-methyl-pentanoic acid], the Ki on Carboxypeptidase A (12 concentrations) is more than 50 µM; at ACE (Sigma, A2580) (12 concentrations), more than 50 µM; on ACE-2 [1] (12 concentrations) it was less than 100 nM; at ACE-2 [2] (setting [3]), more than 500 nM. Further, the “relative activity of the diastereomers EZ and FA” value on ACE-2 [2] (assay not given) is recorded as “more active diastereomer”.

With `CC(C)CC(N[C@@H](Cc1cncn1COCc1ccccc1)C(=O)O)C(=O)O` (single isomer, unassigned) [FG, 2-[2-(3-Benzyloxymethyl-3H-imidazol-4-yl)-1-carboxy-ethylamino]-4-methyl-pentanoic acid], the Ki at Carboxypeptidase A (12 concentrations) was more than 50 µM; on ACE (Sigma, A2580) (12 concentrations), more than 50 µM; at ACE-2 [1] (12 concentrations) it was more than 500 nM; on ACE-2 [2] (setting [3]), more than 500 nM.

`CC(C)CC(N[C@@H](Cc1cncn1COCc1ccccc1)C(=O)O)C(=O)O` (single isomer, unassigned) [FH, 2-[2-(3-Benzyloxymethyl-3H-imidazol-4-yl)-1-carboxy-ethylamino]-4-methyl-pentanoic acid]: the Ki at Carboxypeptidase A (12 concentrations) was more than 50 µM; at ACE (Sigma, A2580) (12 concentrations) it was more than 50 µM; on ACE-2 [1] (12 concentrations) it was more than 500 nM; on ACE-2 [2] (setting [3]), more than 500 nM.

As to `COc1ccc(CCNC(=O)[C@H](Cc2cnc[nH]2)NC(CC(C)C)C(=O)O)cc1` (single isomer, unassigned) [FK, 2-{2-(3H-Imidazol-4-yl)-1-[2-(4-methoxy-phenyl)-ethylcarbamoyl]-ethylamino}-4-methyl-pentanoic acid], the Ki on Carboxypeptidase A (12 concentrations) is more than 50 µM; at ACE (Sigma, A2580) (12 concentrations) it was more than 50 µM; on ACE-2 [1] (12 concentrations) it was more than 500 nM; on ACE-2 [2] (setting [3]) it was more than 500 nM.

Consider `CC(C)CC(N[C@H](CO)Cc1c[nH]cn1)C(=O)O` (single isomer, unassigned) [FO, 2-[1-Hydroxymethyl-2-(1H-imidazol-4-yl)-ethylamino)4-methyl-pentanoic acid], for which the Ki on Carboxypeptidase A (12 concentrations) is more than 50 µM; on ACE (Sigma, A2580) (12 concentrations), more than 50 µM; on ACE-2 [1] (12 concentrations), more than 500 nM; on ACE-2 [2] (setting [3]) it was more than 500 nM.

`CC(C)CC(N[C@@H](Cc1cnc[nH]1)C(=O)NCCc1ccccc1)C(=O)O` (single isomer, unassigned) [FW, 2-[2-(3H-Imidazol-4-yl)-1-phenethylcarbamoyl-ethylamino]-4-methyl-pentanoic acid]: the Ki at Carboxypeptidase A (12 concentrations) is more than 50 µM; at ACE (Sigma, A2580) (12 concentrations), more than 50 µM; at ACE-2 [1] (12 concentrations) it was more than 500 nM; on ACE-2 [2] (setting [3]), more than 500 nM.

Take `CCCCC(N[C@@H](Cc1cncn1Cc1ccccc1)C(=O)O)C(=O)O` (single isomer, unassigned) [FY, 2-[2-(3H-Benzyl-3-imidazol-4-yl)-1-carboxy-ethylamino]-hexanoicacid]: the Ki on Carboxypeptidase A (12 concentrations) was more than 50 µM; at ACE (Sigma, A2580) (12 concentrations), more than 50 µM; on ACE-2 [1] (12 concentrations), less than 100 nM; on ACE-2 [2] (setting [3]), more than 500 nM.

`CC(C)CC(N[C@@H](Cc1cncn1Cc1cccc([N+](=O)[O-])c1)C(=O)O)C(=O)O` (single isomer, unassigned) [GB, 2-[1-Carboxy-2-[3-(3-nitro-benzyl)-3H-imidazol-4-yl]-ethylamino]-4-methyl-pentanoic acid]: the Ki at Carboxypeptidase A (12 concentrations) was more than 50 µM; on ACE (Sigma, A2580) (12 concentrations), more than 50 µM; at ACE-2 [1] (12 concentrations) it was 100 to 500 nM; at ACE-2 [2] (setting [3]), more than 500 nM.

In the case of `CCC(C)C(NC(Cc1cncn1Cc1ccccc1)C(=O)O)C(=O)O` (single isomer, unassigned) [GC, 2-[2-(3-Benzyl-3H-imidazol-4-yl)-1-carboxy-ethylamino]-3-methyl-pentanoic acid], the Ki is 10 to 50 µM on Carboxypeptidase A (12 concentrations); more than 50 µM on ACE (Sigma, A2580) (12 concentrations); 100 to 500 nM at ACE-2 [1] (12 concentrations); more than 500 nM at ACE-2 [2] (setting [3]).

In the case of `O=C(O)C(Cc1ccccc1)N[C@@H](Cc1cncn1Cc1ccccc1)C(=O)O` (single isomer, unassigned) [GF, 3-(3-Benzyl-3H-imidazol-4-yl)-2-(1-carboxy-2-phenyl-ethylamino)-propionic acid], the Ki is less than 10 µM at Carboxypeptidase A (12 concentrations); more than 50 µM at ACE (Sigma, A2580) (12 concentrations); 100 to 500 nM at ACE-2 [1] (12 concentrations); more than 500 nM on ACE-2 [2] (setting [3]).

In the case of `CC(C)CC(N[C@@H](Cc1cncn1Cc1cccc2ccccc12)C(=O)O)C(=O)O` (single isomer, unassigned) [GK, 2-[1-Carboxy-2-(3-naphthalen-1-ylmethyl-3Himidazol-4-yl)-ethylamino]4-methyl-pentanoic acid], the Ki on Carboxypeptidase A (12 concentrations) was 10 to 50 µM; at ACE (Sigma, A2580) (12 concentrations) it was more than 50 µM; on ACE-2 [1] (12 concentrations), less than 100 nM; at ACE-2 [2] (setting [3]) it was less than 100 nM.

For `CC(C)CC(N[C@@H](Cc1cncn1Cc1ccc(Cl)cc1)C(=O)O)C(=O)O` (single isomer, unassigned) [GM, 2-[1-Carboxy-2-[3-(4-chloro-benzyl)-3H-imidazol-4-yl]-ethylamino]4-methyl-pentanoic acid], the Ki at Carboxypeptidase A (12 concentrations) was 10 to 50 µM; at ACE (Sigma, A2580) (12 concentrations) it was more than 50 µM; at ACE-2 [1] (12 concentrations) it was less than 100 nM; at ACE-2 [2] (setting [3]) it was less than 100 nM.

As to `CC(C)CC(N[C@@H](Cc1cncn1Cc1ccc(Cl)c(Cl)c1)C(=O)O)C(=O)O` (single isomer, unassigned) [GW], the Ki was 10 to 50 µM on Carboxypeptidase A (12 compound concentrations); 10 to 50 µM on ACE (Sigma, A2580) (12 compound concentrations); less than 100 nM on ACE-2 [1] (12 compound concentrations); less than 100 nM at ACE-2 [2] (setting [4]).

On to `CC(C)CC(N[C@@H](Cc1cncn1Cc1cccc(Cl)c1)C(=O)O)C(=O)O` (single isomer, unassigned) [HC, 2-[1-Carboxy-2-[3-(3-chloro-benzyl)-3H-imidazol-4-yl]-ethylamino)4-methyl-pentanoic acid], for which the Ki at Carboxypeptidase A (12 compound concentrations) was 10 to 50 µM; at ACE (Sigma, A2580) (12 compound concentrations) it was 10 to 50 µM; at ACE-2 [1] (12 compound concentrations) it was less than 100 nM; at ACE-2 [2] (setting [4]), less than 100 nM; at ACE-2 [2] (Table 3, very good ACE-2 inhibiting compounds, species not given, read-out: ACE-2 Activity, Ki) it was less than 50 nM.

The values are drawn from US7045532B2 (Millennium Pharmaceuticals, Inc., priority 1999, dated 2006).
